Key:
Assay type in all cases: in vivo
[1] = test system: Beet Armyworm (Spodoptera exigua, LAPHEG) (BAW); test: Bioassays on Beet Armyworm (BAW), 128-well diet tray assay; settings: Table ABC rating, Beet Armyworm
Experimental: (§1) Example A: Bioassays on Beet Armyworm (Spodoptera exigua, LAPHEG) (“BAW”), Corn Earworm (Helicoverpa zea, Helize) (“CEW”), and Cabbage Looper (Trichoplusia ni, TRIPNI) (“CL”)
(§2) Certain molecules disclosed in this document were tested against BAW, CEW, and CL using procedures described in the following examples. In the reporting of the results, the “BAW, CEW, & CL Rating Table” was used (See Table Section).
Bioassays on BAW were conducted using a 128-well diet tray assay. one to five second instar BAW larvae were placed in each well (3 mL) of the diet tray that had been previously filled with 1 mL of artificial diet to which 50 μg/cm^2 of the test molecule (dissolved in 50 μL of 90:10 acetone-water mixture) had been applied (to each of eight wells) and then allowed to dry. Trays were covered with a clear self-adhesive cover and held at 25° C., 14:10 light-dark for five to seven days. Percent mortality was recorded for the larvae in each well; activity in the eight wells was then averaged. The results are indicated in the table entitled “Table ABC: Biological Results” (See Table Section).
(§3) Bioassays on BAW and CL were conducted according to the procedures outlined in Example A: Bioassays on Beet Armyworm (“BAW”) and Cabbage Looper (“CL”) using the indicated concentrations.

[2] = test system: Cabbage Looper (Trichoplusia ni, TRIPNI) (CL); test: Bioassays on Cabbage Looper (CL), 128-well diet tray assay; settings: Table ABC rating, Cabbage Looper
Experimental: as §1, §2
Bioassays on CL were conducted using a 128-well diet tray assay. one to five second instar CL larvae were placed in each well (3 mL) of the diet tray that had been previously filled with 1 mL of artificial diet to which 50 μg/cm^2 of the test molecule (dissolved in 50 μL of 90:10 acetone-water mixture) had been applied (to each of eight wells) and then allowed to dry. Trays were covered with a clear self-adhesive cover and held at 25° C., 14:10 light-dark for five to seven days. Percent mortality was recorded for the larvae in each well; activity in the eight wells was then averaged. The results are indicated in the table entitled “Table ABC: Biological Results” (See Table Section).
as §3

[3] = test system: Green Peach Aphid (Myzus persicae, MYZUPE) (GPA); test: Bioassays on Green Peach Aphid (GPA), cabbage seedling foliar spray; settings: Table ABC rating
Experimental: Example B: Bioassays on Green Peach Aphid (Myzus persicae, MYZUPE) (“GPA”) Certain molecules disclosed in this document were tested against GPA using procedures described in the following example. In the reporting of the results, the “GPA & YFM Rating Table” was used (See Table Section). Cabbage seedlings grown in 3-inch pots, with 2-3 small (3-5 cm) true leaves, were used as test substrate. The seedlings were infested with 20-50 GPA (wingless adult and nymph stages) one day prior to chemical application. Four pots with individual seedlings were used for each treatment. Test molecules (2 mg) were dissolved in 2 mL of acetone/methanol (1:1) solvent, forming stock solutions of 1000 ppm test molecule. The stock solutions were diluted 5× with 0.025% Tween 20 in water to obtain the solution at 200 ppm test molecule. A hand-held aspirator-type sprayer was used for spraying a solution to both sides of […] leaves until runoff. Reference plants (solvent check) were sprayed with the diluent only containing 20% by volume of acetone/methanol (1:1) solvent. Treated plants were held in a holding room for three days at approximately 25° C. and ambient relative humidity (RH) prior to grading. Evaluation was conducted by counting the number of live aphids per plant under a microscope. Percent Control was measured by using Abbott's correction formula (W. S. Abbott, “A Method of Computing the Effectiveness of an Insecticide” J. Econ. Entomol. 18 (1925), pp. 265-267) as follows. Corrected % Control=100*(X−Y)/X • where • X=No. of live aphids on solvent check plants and • Y=No. of live aphids on treated plants The results are indicated in the table entitled “Table ABC: Biological Results” (See Table Section).

[4] = test system: Yellow Fever Mosquito (Aedes aegypti, AEDSAE) (YFM); test: Bioassays on Yellow Fever Mosquito (YFM), 96-well plate larval assay; settings: Table ABC rating
Experimental: Example C: Bioassays on Yellow Fever Mosquito (Aedes aegypti, AEDSAE) (“YFM”)
Certain molecules disclosed in this document were tested against YFM using procedures described in the following paragraph. In the reporting of the results, the “GPA & YFM Rating Table” was used (See Table Section).
Master plates containing 400 μg of a molecule dissolved in 100 μL of dimethyl sulfoxide (DMSO) (equivalent to a 4000 ppm solution) are used. A master plate of assembled molecules contains 15 μL per well. To this plate, 135 μL of a 90:10 water:acetone mixture is added to each well. A robot (Biomek® NXP Laboratory Automation Workstation) is programmed to dispense 15 μL aspirations from the master plate into an empty 96-well shallow plate (“daughter” plate). There are 6 reps (“daughter” plates) created per master. The created daughter plates are then immediately infested with YFM larvae.
The day before plates are to be treated, mosquito eggs are placed in Millipore water containing liver powder to begin hatching (4 g. into 400 mL). After the daughter plates are created using the robot, they are infested with 220 μL of the liver powder/larval mosquito mixture (about 1 day-old larvae). After plates are infested with mosquito larvae, a non-evaporative lid is used to cover the plate to reduce drying. Plates are held at room temperature for 3 days prior to grading. After 3 days, each well is observed and scored based on mortality. The results are indicated in the table entitled “Table ABC: Biological Results” (See Table Section).

SMILES	pest or weed control at 50 µg/cm2 [1] [%]	pest or weed control at 50 µg/cm2 [2] [%]	GPA [3]	YFM [4]
O=C(NC1CC(F)(F)C1)c1ccc(/C(F)=C/C(c2cc(Cl)c(Cl)c(Cl)c2)C(F)(F)F)cc1C(F)(F)F (stereo not drawn) [F7, (Z)—N-(3,3-difluorocyclobutyl)-4-(1,4,4,4-tetrafluoro-3-(3,4,5-trichlorophenyl)but-1-en-1-yl)-2-(trifluoromethyl)benzamide]	50 to 100	50 to 100	A (80-100)	
CC(NC(=O)c1ccc(/C(F)=C/C(c2cc(Cl)c(Cl)c(Cl)c2)C(F)(F)F)cc1C(F)(F)F)c1ccccn1 (stereo not drawn) [F52, (Z)—N-(1-(Pyridin-2-yl)ethyl)-4-(1,4,4,4-tetrafluoro-3-(3,4,5-trichlorophenyl)but-1-en-1-yl)-2-(trifluoromethyl)benzamide]	50 to 100	50 to 100		A (80-100)
O=C(NC1CC1)c1ccc(/C(F)=C/C(c2cc(Br)cc(Br)c2)C(F)(F)F)cc1C(F)(F)F (stereo not drawn) [F42, (Z)—N-Cyclopropyl-4-(3-(3,5-dibromophenyl)-1,4,4,4-tetrafluorobut-1-en-1-yl)-2-(trifluoromethyl)benzamide]	50 to 100	50 to 100		A (80-100)
Cc1cc(C(/C=C(\F)c2ccc(C(=O)NC(C)C(F)(F)F)c(C(F)(F)F)c2)C(F)(F)F)cc(C)c1Cl (stereo not drawn) [F30, 4-((Z)-3-(4-Chloro-3,5-dimethylphenyl)-1,4,4,4-tetrafluorobut-1-en-1-yl)-2-(trifluoromethyl)-N-(1,1,1-trifluoropropan-2-yl)benzamide]	50 to 100	50 to 100		A (80-100)
O=C(NC1CC1)c1ccc(/C(F)=C/C(c2cc(Br)c(Cl)c(Br)c2)C(F)(F)F)cc1C(F)(F)F (stereo not drawn) [F12, (Z)—N-cyclopropyl-4-(3-(3,5-dibromo-4-chlorophenyl)-1,4,4,4-tetrafluorobut-1-en-1-yl)-2-(trifluoromethyl)benzamide]	50 to 100	50 to 100		A (80-100)
O=C(NC1CCC(F)(F)CC1)c1ccc(/C(F)=C/C(c2ccc(Cl)c(Cl)c2)C(F)(F)F)cc1C(F)(F)F (stereo not drawn) [F24, (Z)-4-(3-(3,4-Dichlorophenyl)-1,4,4,4-tetrafluorobut-1-en-1-yl)-N-(4,4-difluorocyclohexyl)-2-(trifluoromethyl)benzamide]	50 to 100	50 to 100		A (80-100)
CC(NC(=O)c1ccc(/C(F)=C/C(c2cc(Br)cc(Br)c2)C(F)(F)F)cc1C(F)(F)F)C(F)(F)F (stereo not drawn) [F28, (Z)-4-(3-(3,5-Dibromophenyl)-1,4,4,4-tetrafluorobut-1-en-1-yl)-2-(trifluoromethyl)-N-(1,1,1-trifluoropropan-2-yl)benzamide]	50 to 100	50 to 100		A (80-100)
O=C(NC1CC1)c1ccc(/C(F)=C/C(c2cc(Cl)c(Cl)c(Cl)c2)C(F)(F)F)cc1C(F)(F)F (stereo not drawn) [F3, (Z)—N-Cyclopropyl-4-(1,4,4,4-tetrafluoro-3-(3,4,5-trichlorophenyl)but-1-en-1-yl)-2-(trifluoromethyl)benzamide]	50 to 100	50 to 100	B (More than 0-Less than 80)	
O=C(NC1CCC(F)(F)CC1)c1ccc(/C(F)=C/C(c2cc(Br)cc(Br)c2)C(F)(F)F)cc1C(F)(F)F (stereo not drawn) [F40, (Z)-4-(3-(3,5-Dibromophenyl)-1,4,4,4-tetrafluorobut-1-en-1-yl)-N-(4,4-difluorocyclohexyl)-2-(trifluoromethyl)benzamide]	50 to 100	50 to 100		A (80-100)
O=C(NC1CC1)c1ccc(/C(F)=C/C(c2cc(Cl)c(Br)c(Cl)c2)C(F)(F)F)cc1C(F)(F)F (stereo not drawn) [F22, (Z)-4-(3-(4-Bromo-3,5-dichlorophenyl)-1,4,4,4-tetrafluorobut-1-en-1-yl)-N-cyclopropyl-2-(trifluoromethyl)benzamide]	50 to 100	50 to 100		A (80-100)
O=C(Nc1ccc(Cl)nc1)c1ccc(/C(F)=C/C(c2cc(Cl)c(Cl)c(Cl)c2)C(F)(F)F)cc1C(F)(F)F (stereo not drawn) [F26]	50 to 100	50 to 100		A (80-100)
CN(CC(F)(F)F)C(=O)c1ccc(/C(F)=C/C(c2cc(Cl)c(Cl)c(Cl)c2)C(F)(F)F)cc1C(F)(F)F (stereo not drawn) [F29, (Z)—N-Methyl-4-(1,4,4,4-tetrafluoro-3-(3,4,5-trichlorophenyl)but-1-en-1-yl)-N-(2,2,2-trifluoroethyl)-2-(trifluoromethyl)benzamide]	50 to 100	50 to 100		A (80-100)
O=C(NC1CCC(F)(F)CC1)c1ccc(/C(F)=C/C(c2cc(Cl)c(Br)c(Cl)c2)C(F)(F)F)cc1C(F)(F)F (stereo not drawn) [F21]	50 to 100	50 to 100		A (80-100)
Cc1cc(C(/C=C(\F)c2ccc(C(=O)NC3CCC(F)(F)CC3)c(C(F)(F)F)c2)C(F)(F)F)cc(C)c1Cl (stereo not drawn) [F31, (Z)-4-(3-(4-Chloro-3,5-dimethylphenyl)-1,4,4,4-tetrafluorobut-1-en-1-yl)-N-(4,4difluorocyclohexyl)-2-(trifluoromethyl)benzamide]	50 to 100	50 to 100		A (80-100)
O=C(NCc1ccc(Cl)nc1)c1ccc(/C(F)=C/C(c2cc(Cl)c(Cl)c(Cl)c2)C(F)(F)F)cc1C(F)(F)F (stereo not drawn) [F11, (Z)—N-((6-Chloropyridin-3-yl)methyl)-4-(1,4,4,4-tetrafluoro-3-(3,4,5-trichlorophenyl)but-1-en-1-yl)-2-(trifluoromethyl)benzamide]	50 to 100	50 to 100		A (80-100)
CO/N=C\NC(=O)c1ccc(/C(F)=C/C(c2cc(Cl)c(Cl)c(Cl)c2)C(F)(F)F)cc1C(F)(F)F (mixture of isomers) [F19, N-((E/Z)-(methoxyimino)methyl)-4-((Z)-1,4,4,4-tetrafluoro-3-(3,4,5-trichlorophenyl)but-1-en-1-yl)-2-(trifluoromethyl)benzamide]	50 to 100	50 to 100	B (More than 0-Less than 80)	
O=C(NC1CCC(F)(F)CC1)c1ccc(/C(F)=C/C(c2cc(Br)c(Cl)c(Br)c2)C(F)(F)F)cc1C(F)(F)F (stereo not drawn) [F32, (Z)-4-(3-(3,5-Dibromo-4-chlorophenyl)-1,4,4,4-tetrafluorobut-1-en-1-yl)-N-(4,4-difluorocyclohexyl)-2-(trifluoromethyl)benzamide]	50 to 100	50 to 100		A (80-100)

Source: patent US9924717B2, “Molecules having pesticidal utility, and intermediates, compositions, and processes, related thereto” (Dow AgroSciences LLC, priority 2016, dated 2018)
